Experimental data: paper PMC8704606, “The Artemiside-Artemisox-Artemisone-M1 Tetrad: Efficacies against Blood Stage P. falciparum Parasites, DMPK Properties, and the Case for Artemiside” (Pharmaceutics, 2021)
Like-named read-outs stand apart in the source and are kept apart here.

Columns and labels:
[1] = single dose 10 mg/kg, healthy Aotus monkeys; cited from earlier work
[2] = test system: D6 (CQ sensitive); design: method as in ref S2; settings: [3H]-hypoxanthine assay; ref S2; read-out: Antimalarial activities IC50 D6; cited from earlier work
[3] = test system: W2 (CQ resistant); design: method as in ref S2; settings: [3H]-hypoxanthine assay; ref S2; read-out: Antimalarial activities IC50 W2; cited from earlier work
[4] = test system: 7G8 (CQ resistant); design: method as in ref S2; settings: [3H]-hypoxanthine assay; ref S2; read-out: Antimalarial activities IC50 7G8; cited from earlier work
[5] = test system: TM93-C1088 (atovaquone and CQ resistant); design: method as in ref S2; settings: [3H]-hypoxanthine assay; ref S2; read-out: Antimalarial activities IC50 TM93-C1088; cited from earlier work
[6] = test system: asexual blood stages of Pf K1 (drug resistant); assay: SYBR Green I proliferation assay, asexual blood stages, Pf K1; format: cell-based, Plasmodium falciparum
Experimental: (§1) Dose response curves are in Figures S1a–c and S2a–c in the Supplementary Material 1. Table 1 also includes the historical values for artemiside and artemisone obtained using the same assay.
(§2) All other assay conditions are as previously described. Compound working solutions were prepared from a 10 mM stock solution in 100% (vol/vol) dimethyl sulfoxide (DMSO, Sigma-Aldrich) in supplemented RPMI 1640 medium containing AlbuMAX II with a final DMSO concentration of 0.1% (vol/vol), previously determined to be nontoxic to blood stage asexual parasites and gametocytes. The dose-responses of the amino-artemisinins were assayed using a 2-fold serial drug dilution on in vitro 95% ring-stage parasites at 37 °C under 90% N2, 5% CO2, and 5% O2 atmospheric conditions, detecting SYBR green I fluorescence as the proliferative marker following a 96 h drug treatment (1% parasitemia and 1% hematocrit) using a GloMaxR-Multi+ Detection System (Promega). No drug washout steps were performed during drug incubation periods prior to the assays. Activity against the Pf drug-sensitive NF54 strain and the drug-resistant K1 (resistant to CQ, quinine, pyrimethamine, and cycloguanil) and W2 (resistant to CQ, quinine, pyrimethamine, and cycloguanil) strains was evaluated. Data analysis was performed using GraphPad Prism (version 6), intra-assay variability was monitored with Z-factors, and acceptable interassay reproducibility was determined from the percent coefficient of variation (CV).

[7] = test system: asexual blood stages of Pf W2 (drug resistant); assay: SYBR Green I proliferation assay, asexual blood stages, Pf W2; format: cell-based, Plasmodium falciparum
Experimental: as §1, §2

[8] = design: method as in PMID 34097488; settings: cited from earlier work
[9] = test system: fetal rat brain stem cells; settings: ref S4 (24), cited from earlier work; for Viability NOEC: neuron-specific enolase activity, 7 days exposure
[10] = ATP levels 1 day after initial administration

## C[C@H]1[C@H](N2CCS(=O)(=O)CC2)O[C@@H]2O[C@@]3(C)CC[C@H]4[C@H](C)CC[C@@H]1[C@@]24OO3 [Artemisone 7, Artemisone]
[1]
  ex vivo antimalarial activity observable up to (post dose): up to 7 h
[2]
  IC50: 1 ± 0.4 nM
[3]
  IC50: 1.3 ± 0.5 nM
[4]
  IC50: 0.8 ± 0.1 nM
[5]
  IC50: 0.7 ± 0.2 nM

## C[C@H]1[C@H](N2CC[S+]([O-])CC2)O[C@@H]2O[C@@]3(C)CC[C@H]4[C@H](C)CC[C@@H]1[C@@]24OO3 [Artemisox 6, Artemisox]
[6]
  RI (resistance index) = IC50 K1/IC50 NF54: 0.8
[6]; Plasmodium falciparum, asexual blood stage Pf K1, multidrug resistant, SYBR Green I, 96 h, ± SEM
  IC50: 1.5 ± 0.5 nM
[6]; multidrug resistant K1 and W2 vs NF54
  RI ratios: < 1
[7]
  RI = IC50 W2/IC50 NF54: 0.7
[7]; Plasmodium falciparum, asexual blood stage Pf W2, multidrug resistant, SYBR Green I, 96 h, ± SEM
  IC50: 1.5 ± 0.4 nM

## C[C@H]1[C@H](N2CCSCC2)O[C@@H]2O[C@@]3(C)CC[C@H]4[C@H](C)CC[C@@H]1[C@@]24OO3 [Artemiside 5, Artemiside]
[8]
  F% (oral bioavailability): 1%
[9]; [10]
  ATP IC50: 8.5 µg/mL
  ATP NOEC: 1.0 µg/mL
[9]; ATP levels 1 day after initial administration, listed as artemiside
  ATP NOEC: 1 µg/mL
[9]
  Viability NOEC: 1.0 µg/mL
[9]; listed as artemiside
  Viability NOEC: 1 µg/mL
